From patent US4151268A, “Barbituric acid antigens and antibodies specific therefor” (Hoffmann-La Roche Inc., priority 1977, dated 1979)

Key:
[1] = test system: barbituric acid specific antibody (antisera obtained in Example 2); assay: Comparison runs: recognition of other barbituric acid derivatives and related compounds by the antibody; details: at similar concentrations
[2] = test system: barbituric acid specific antibody (antisera obtained in Example 2); assay: Radioimmunoassay: competitive inhibition of binding of [C14] pentobarbital to antiserum (ammonium sulfate precipitation); details: 4° C., overnight

In the case of `CCC1(CC)C(=O)NC(=O)NC1=O` [barbital], the “recognition / binding by the antibody” value [1] is reported as “capable of recognizing”.

For `CCC1(c2ccccc2)C(=O)NC(=O)NC1=O` [phenobarbital], the “recognition / binding by the antibody” value [1] was “capable of recognizing”.

For `CN1C(=O)NC(=O)C(C)(C2=CCCCC2)C1=O` (centres unmarked) [hexobarbital], the “recognition / binding by the antibody” value [1] was “failed to bind”.

`CCCC(C)C1(CC)C(=O)NC(=O)NC1=O` (centres unmarked) [pentobarbital] was tested, and the “recognition / binding by the antibody” value [1] was “capable of recognizing”, the “Percent inhibition of binding of pentobarbital-C^14” value (“Percent inhibition” for short) ([2]; 1 nanogram non-radioactive pentobarbital added) was 10% and the “Percent inhibition” value ([2]; 5 nanograms non-radioactive pentobarbital added, sample volume 10 μl) was 20%. The “Percent inhibition” value ([2]; 10 nanograms non-radioactive pentobarbital added) was 28%, the “Percent inhibition” value ([2]; 20 nanograms non-radioactive pentobarbital added) was 43% and the “Percent inhibition” value ([2]; 30 nanograms non-radioactive pentobarbital added) was 52%. For the same compound, the “Percent inhibition” value ([2]; 40 nanograms non-radioactive pentobarbital added) was 63%.

`CCCC(C)C1(CC)C(=O)NC(=S)NC1=O` (centres unmarked) [thiopental] was tested, and the “recognition / binding by the antibody” value [1] was “failed to bind”.
